Measured values taken from ChEMBL document CHEMBL3745617 (J Med Chem, 2015).

Columns and labels:
[1] = test system: Receptor-type tyrosine-protein kinase FLT3 (Homo sapiens), P36888 [UNDEFINED MUTATION]; test: Inhibition of FLT3 ITD mutant (unknown origin) expressed in BaF3 cells assessed as inhibition of cell proliferation after 72 hrs by CelltiterGlo assay; format: cell-based
[2] = Cytotoxicity against mouse BAF3 cells assessed as cell proliferation after 72 hrs by CelltiterGlo assay; format: cell-based
[3] = test system: MV4-11; test: Antiproliferative activity against human MV4-11 cells after 72 hrs by CelltiterGlo assay; format: functional; conditions: MV4-11, 72 h

Sequence of Receptor-type tyrosine-protein kinase FLT3 (Homo sapiens), P36888 [UNDEFINED MUTATION] (P36888 whole entry, looked up, stated change not applied): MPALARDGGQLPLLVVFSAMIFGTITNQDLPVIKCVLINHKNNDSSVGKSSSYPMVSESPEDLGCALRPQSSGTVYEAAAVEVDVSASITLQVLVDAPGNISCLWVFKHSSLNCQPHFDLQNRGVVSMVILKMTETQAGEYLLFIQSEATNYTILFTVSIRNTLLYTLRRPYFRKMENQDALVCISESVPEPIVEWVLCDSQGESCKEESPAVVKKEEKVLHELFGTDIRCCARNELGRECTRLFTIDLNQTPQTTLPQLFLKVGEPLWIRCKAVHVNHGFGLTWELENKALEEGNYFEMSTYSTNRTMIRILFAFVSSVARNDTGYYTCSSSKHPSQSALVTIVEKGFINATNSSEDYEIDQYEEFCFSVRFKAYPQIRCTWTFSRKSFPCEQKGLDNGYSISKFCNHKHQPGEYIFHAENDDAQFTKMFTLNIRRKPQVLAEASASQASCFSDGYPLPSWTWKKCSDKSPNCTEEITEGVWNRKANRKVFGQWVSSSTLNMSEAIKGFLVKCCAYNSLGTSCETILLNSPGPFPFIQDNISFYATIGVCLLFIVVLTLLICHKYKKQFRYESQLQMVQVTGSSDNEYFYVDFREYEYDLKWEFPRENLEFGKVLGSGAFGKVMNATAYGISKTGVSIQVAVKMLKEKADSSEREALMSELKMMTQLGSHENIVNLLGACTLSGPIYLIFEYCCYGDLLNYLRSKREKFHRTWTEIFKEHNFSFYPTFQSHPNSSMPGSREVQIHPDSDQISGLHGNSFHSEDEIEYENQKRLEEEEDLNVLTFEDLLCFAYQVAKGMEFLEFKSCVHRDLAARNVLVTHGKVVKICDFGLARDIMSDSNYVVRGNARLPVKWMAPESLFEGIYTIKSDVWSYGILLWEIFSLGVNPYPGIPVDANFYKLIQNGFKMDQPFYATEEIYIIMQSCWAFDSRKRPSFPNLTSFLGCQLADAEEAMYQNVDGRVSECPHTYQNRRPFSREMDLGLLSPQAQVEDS

Row | Compound | GI50 [1] | GI50 at 72 h [2] | GI50 [3]
1 | CCC(C)(C)C(=O)N1CCC[C@@H](n2nc(-c3ccc(Oc4ccccc4)cc3)c3c(N)ncnc32)C1 | 260 nM | 4500 nM | 2400 nM
2 | CS(=O)(=O)N1CCC[C@@H](n2nc(-c3ccc(Oc4ccccc4)cc3)c3c(N)ncnc32)C1 | 48 nM | > 10000 nM | 170 nM
3 | Nc1ncnc2c1c(-c1ccc(Oc3ccccc3)cc1)nn2[C@@H]1CCCN(C(=O)[C@H](N)CO)C1 | 46 nM | 6500 nM | 61 nM
4 | CCS(=O)(=O)N1CCC[C@@H](n2nc(-c3ccc(Oc4ccccc4)cc3)c3c(N)ncnc32)C1 | 140 nM | 4000 nM | 570 nM
5 | CN(C)CC(=O)N1CCC(n2nc(-c3ccc(Oc4ccccc4)cc3)c3c(N)ncnc32)CC1 | 75 nM | 3650 nM | 110 nM
6 | Nc1ncnc2c1c(-c1ccc(Oc3ccccc3)cc1)nn2[C@@H]1CCCN(C(=O)CC2CC2)C1 | 82 nM | 3600 nM | 410 nM
7 | CN(C)CC(=O)N1CC[C@@H](n2nc(-c3ccc(Oc4ccccc4)cc3)c3c(N)ncnc32)C1 | 41 nM | 8420 nM | 83 nM
8 | CN1CCN(CC(=O)N2CCC[C@@H](n3nc(-c4ccc(Oc5ccccc5)cc4)c4c(N)ncnc43)C2)CC1 | 93 nM | 2300 nM | 230 nM
9 | CC(C)C[C@@H](N)C(=O)N1CCC[C@@H](n2nc(-c3ccc(Oc4ccccc4)cc3)c3c(N)ncnc32)C1 | 5 nM | 1300 nM | 32 nM
10 | CC(C)(C)CC(=O)N1CCC[C@@H](n2nc(-c3ccc(Oc4ccccc4)cc3)c3c(N)ncnc32)C1 | 460 nM | 4600 nM | 2400 nM
11 | NCC(=O)N1CC[C@@H](n2nc(-c3ccc(Oc4ccccc4)cc3)c3c(N)ncnc32)C1 | 80 nM | 7590 nM | 180 nM
12 | C=CC(=O)N1CCC[C@@H](n2nc(-c3ccc(Oc4ccccc4)cc3)c3c(N)ncnc32)C1 [IBRUTINIB] | 120 nM | > 10000 nM | 
13 | CCCS(=O)(=O)N1CCC[C@@H](n2nc(-c3ccc(Oc4ccccc4)cc3)c3c(N)ncnc32)C1 | 160 nM | 8600 nM | 760 nM
14 | CCCC(=O)N1CCC[C@@H](n2nc(-c3ccc(Oc4ccccc4)cc3)c3c(N)ncnc32)C1 | 450 nM | > 10000 nM | 1200 nM
15 | CS(=O)(=O)N1CC[C@@H](n2nc(-c3ccc(Oc4ccccc4)cc3)c3c(N)ncnc32)C1 | 130 nM | > 10000 nM | 420 nM
16 | CS(=O)(=O)N1CCC(n2nc(-c3ccc(Oc4ccccc4)cc3)c3c(N)ncnc32)CC1 | 190 nM | > 10000 nM | 630 nM

Row | Compound | GI50 [1] | GI50 at 72 h [2] | GI50 [3]
17 | CN1CCC(C(=O)N2CCC[C@@H](n3nc(-c4ccc(Oc5ccccc5)cc4)c4c(N)ncnc43)C2)CC1 | 77 nM | 5000 nM | 160 nM
18 | CCC(=O)N1CCC[C@@H](n2nc(-c3ccc(Oc4ccccc4)cc3)c3c(N)ncnc32)C1 | 28 nM | 3800 nM | 130 nM
19 | CC(C)C[C@@H](N)C(=O)N1CCC(n2nc(-c3ccc(Oc4ccccc4)cc3)c3c(N)ncnc32)CC1 | 75 nM | 590 nM | 210 nM
20 | CC(=O)N1CCC[C@@H](n2nc(-c3ccc(Oc4ccccc4)cc3)c3c(N)ncnc32)C1 | 70 nM | 5500 nM | 350 nM
21 | Nc1ncnc2c1c(-c1ccc(Oc3ccccc3)cc1)nn2[C@@H]1CCCN(C(=O)C2CC2)C1 | 1400 nM | > 10000 nM | 6500 nM
22 | CC[C@@H](C)[C@@H](N)C(=O)N1CCC[C@@H](n2nc(-c3ccc(Oc4ccccc4)cc3)c3c(N)ncnc32)C1 | 88 nM | 1700 nM | 120 nM
23 | NCCC(=O)N1CCC[C@@H](n2nc(-c3ccc(Oc4ccccc4)cc3)c3c(N)ncnc32)C1 | 390 nM | > 10000 nM | 750 nM
24 | CC(C)C[C@@H](N)C(=O)N1CC[C@@H](n2nc(-c3ccc(Oc4ccccc4)cc3)c3c(N)ncnc32)C1 | 41 nM | 2150 nM | 120 nM
25 | NCC(=O)N1CCC[C@@H](n2nc(-c3ccc(Oc4ccccc4)cc3)c3c(N)ncnc32)C1 | 7 nM | 3800 nM | 22 nM
26 | CC(C)[C@@H](N)C(=O)N1CCC[C@@H](n2nc(-c3ccc(Oc4ccccc4)cc3)c3c(N)ncnc32)C1 | 17 nM | 1400 nM | 27 nM
27 | C=CC(=O)N1CCC[C@@H](n2nc(-c3ccc(/C=C/c4ccccc4)cc3)c3c(N)ncnc32)C1 | 1800 nM | > 10000 nM | > 10000 nM
28 | C[C@@H](N)C(=O)N1CCC[C@@H](n2nc(-c3ccc(Oc4ccccc4)cc3)c3c(N)ncnc32)C1 | 22 nM | 3800 nM | 54 nM
29 | CC(O)[C@@H](N)C(=O)N1CCC[C@@H](n2nc(-c3ccc(Oc4ccccc4)cc3)c3c(N)ncnc32)C1 (some centres not stated) | 22 nM | 3900 nM | 64 nM
30 | CC(C)(C)C(=O)N1CCC[C@@H](n2nc(-c3ccc(Oc4ccccc4)cc3)c3c(N)ncnc32)C1 | 1800 nM | > 10000 nM | > 10000 nM
31 | CN(C)CC(=O)N1CCC[C@H](n2nc(-c3ccc(Oc4ccccc4)cc3)c3c(N)ncnc32)C1 | 120 nM | 5800 nM | 280 nM
